This note sets out measurements from Sander's compilation of Henry's law constants (doi:10.1016/s0378-4347(00)82845-5).

The series can be described thus: Henry solubility constant Hcp at 310 K (mol/(m3 Pa)). To be noted: reference: Guitart et al. (1989).

As for `CC(Cl)(Cl)Cl` [1,1,1-trichloroethane], the “Henry solubility constant Hcp at 310 K” value was determined as 0.00032.

For `FC(F)(F)C(Cl)Br` (configuration not stated) [1-bromo-1-chloro-2,2,2-trifluoroethane], the “Henry solubility constant Hcp at 310 K” value worked out at 0.00028. The value for `CC(C)CC(C)(C)C` [2,2,4-trimethylpentane] was 4.6e-06; that for `FC(F)OC(F)(F)C(F)Cl` (configuration not stated) [2-chloro-1,1,2-trifluoroethyl difluoromethyl ether] was 0.00027. The value for `c1ccccc1` [benzene] was 0.002; that for `CCCC` [butane] was 8e-06; that for `C1CCCCC1` [cyclohexane] was 3.4e-05. Regarding `C1CC1` [cyclopropane], the “Henry solubility constant Hcp at 310 K” value is 7.8e-05. Regarding `ClCCl` [dichloromethane], the “Henry solubility constant Hcp at 310 K” value turned out to be 0.0034.

As for `CCOCC` [diethyl ether], the “Henry solubility constant Hcp at 310 K” value stood at 0.0063. Next, `CC(C)OC(C)C` [diisopropyl ether]: 0.0028; `CCOC(C)=O` [ethyl ethanoate]: 0.043. The value for `CCCCCCC` [heptane] was 6e-06; that for `CCCCCC` [hexane] was 6.7e-06.

Regarding `CC(C)=O` [propanone], the “Henry solubility constant Hcp at 310 K” value was 0.12. `FS(F)(F)(F)(F)F` [sulfur hexafluoride]: the “Henry solubility constant Hcp at 310 K” value is 1.4e-06. Next, `ClC=C(Cl)Cl` [trichloroethene]: 0.00055.
